# Test results reported in patent US5424185A, “Human high-affinity neurotransmitter uptake system” (Baylor College of Medicine, priority 1990, dated 1995).
# Tested on: aspartate/glutamate co-transport system (L-Aspl cells)
# Assay: D-[3H]aspartate uptake by L-Aspl cells
# Assay type: cell-based, human
# Conditions: not given
# Description: Kinetic analyses of D-[^3 H] […] Asp. […] Asp uptake.
# The specificity of the high-affinity transport mechanism in L-Aspl cells also was examined. […] Asp.
# The high-affinity transport system in L-Aspl cells was also analyzed in terms of its relative sensitivity to compounds specific for various subtypes of excitatory amino acid (EAA) receptors.
# A series of known inhibitors of high-affinity D-Asp uptake systems (including L-cysteic acid (L-CA), L-cysteine sulfinic acid (L-CSA), aminophosphonoproprionic acid (APPA) and D-threoaspartic acid (THAA)) were also tested for their effects on D-[^3 H] Asp uptake by L-Aspl cells.
row,Compound,effect on D-[3H]Asp uptake by L-Aspl cells
1,"NC(CCCC(=O)O)C(=O)O (stereo not shown) [AAA, a-aminoadipic acid]",virtually without inhibitory effect
2,"NC(CP(=O)(O)O)C(=O)O (stereo not shown) [APPA, aminophosphonoproprionic acid]",moderate in inhibitory potency
3,"CCOC(=O)CC[C@H](N)C(=O)OCC [DEEG, glutamate diethylester]",without effect
4,"N[C@@H](CS(=O)(=O)O)C(=O)O [L-CA, L-cysteic acid]",potent inhibitory effects
5,"N[C@@H](CS(=O)O)C(=O)O [L-CSA, L-cysteine sulfinic acid]",potent inhibitory effects
6,N[C@@H](CS)C(=O)O [L-cysteine],slight and not statistically significant
7,NC(=O)CC[C@H](N)C(=O)O [L-glutamine],slight and not statistically significant
8,"N[C@@H](CCS(=O)(=O)O)C(=O)O [LHCA, L-homocysteic acid]",without effect
9,"CN[C@H](CC(=O)O)C(=O)O [NMDA, N-methyl-D-aspartic acid]",without effect
10,"N[C@@H](C(=O)O)[C@@H](O)C(=O)O [THAA, D-threoaspartic acid]",potent inhibitory effects
11,C=C(C)[C@H]1CN[C@H](C(=O)O)[C@H]1CC(=O)O [kainic acid],significant inhibition
12,N[C@@H](Cn1oc(=O)[nH]c1=O)C(=O)O [quisqualate],without effect
13,NCCS(=O)(=O)O [taurine],slight and not statistically significant
14,dihydroxykainate,significant inhibition

# Tested on: human L-glutamate transporter (L-Glul cells)
# Assay: L-[3H]glutamate uptake by L-Glul cells
# Assay type: cell-based
# Conditions: unlabelled neurotransmitters, EAA receptor ligands, co-transporter inhibitors
# Description: Both L-Glul and L-M cells were assessed for their kinetic properties of [^3 H] Glu uptake, and the results were analyzed by fitting to Michaelis-Menten kinetics. This was done by incubating cells with differing concentrations of [^3 H] Glu (ranging from 0.05 to 2 μM) for 10 minutes, at both 37° C. and 0° C. The amount of [^3 H] Glu retained by the cells following incubation was then quantitated and converted (using the manufacturer's specific activity for [^3 H] Glu to the corresponding picomole-equivalent of the radioligand, for each concentration of radioligand at each temperature. Then, the pmol value is normalized by the length of incubation and the amount of protein corresponding to the number of cells assayed. The resulting value, expressed in units of pmol/min/mg protein, is the initial velocity value for each concentration of [^3 H] Glu at each temperature. The initial velocity measured at 37° C. represents total initial velocity; the initial velocity measured at 0° C. represents nonspecific initial velocity. The difference between these two velocity values is then the specific initial velocity, denoted by "V", for each concentration of [^3 H] Glu.
# Various drugs specific for excitatory amino acid (EAA) receptor subtypes were assessed for their effects on [^3 H] Glu uptake by L-Glul cells.
# Glu uptake by L-Glul cells.
row,Compound,effect on [3H]Glu uptake by L-Glul cells
1,"Cc1onc(O)c1CC(N)C(=O)O [AHMIP, D-amino-3-hydroxy-5-methyl-4-isoxazoneproprionic acid]",no inhibitory effect
2,"NC(CCP(=O)(O)O)C(=O)O (stereo not shown) [AP4, 2-amino-4-phosphonobutyric acid]",without effect
3,"NC(CCCP(=O)(O)O)C(=O)O (stereo not shown) [APV, 2-amino-5-phosphonovaleric acid]",without effect
4,N[C@H](CCS(=O)(=O)O)C(=O)O [D-homocysteic acid],without effect
5,N[C@H](CCC(=O)NCS(=O)(=O)O)C(=O)O [GAMS],without effect
6,"CN[C@H](CC(=O)O)C(=O)O [NMDA, N-methyl-D-aspartic acid]",without effect
7,N[C@@H](CS(=O)(=O)O)C(=O)O [cysteic acid],only unlabelled L-glutamate seems to mediate some inhibition
8,NC(CS(=O)O)C(=O)O (stereo not shown) [cysteine sulfinate],no effect
9,NCCc1ccc(O)c(O)c1 [dopamine],only unlabelled L-glutamate seems to mediate some inhibition
10,N[C@H](C(=O)O)c1cc(=O)[nH]o1 [ibotenic acid],without effect
11,C=C(C)[C@H]1CN[C@H](C(=O)O)[C@H]1CC(=O)O [kainic acid],without effect
12,N[C@@H](Cn1oc(=O)[nH]c1=O)C(=O)O [quisqualate],potent inhibitor
13,NCCS(=O)(=O)O [taurine],only unlabelled L-glutamate seems to mediate some inhibition
14,methyl-glutamylphosphonic acid [MGPA],without effect

# Tested on: GABA transporter (L-GAB1 cells)
# Assay: [3H]GABA uptake by L-GAB1 cells
# Assay type: cell-based, human
# Conditions: competitor at 100-fold excess relative to [3H]GABA
# Description: Using concentrations of [^3 H] GABA ranging from 2 to 500 μM, the kinetic profile of GABA uptake was determined for both L-GAB1 and L-M cells. The initial velocity of GABA uptake was measured and plotted against the corresponding [^3 H] GABA concentration for both cell lines. […] The velocity profile for L-GAB1 cells was subtracted by that of L-M cells, and the resulting data used for a double-reciprocal plot of velocity-^1 against GABA concentration-^1. The velocity profile for L-M cells was also transformed into a double-reciprocal plot.
# Several known inhibitors of high-affinity GABA uptake were used to examine their efficacies in inhibiting [^3 H] GABA uptake by L-GAB1 cells. […] Each of these agents was used at several concentrations ranging from 1 to 100 μM in assays of [^3 H] GABA uptake by L-GAB1 cells. […] GABA uptake by L-GAB1 cells.
# L-GAB1 cells were also analyzed in terms of their ligand-specificity in the high-affinity GABA uptake mechanism.
row,Compound,ligand-specificity of [3H]GABA uptake by L-GAB1 cells
1,C[C@H](N)C(=O)O [L-alanine],somewhat sensitive
2,N=C(N)NCCC[C@H](N)C(=O)O [L-arginine],somewhat sensitive
3,CNC[C@H](O)c1ccc(O)c(O)c1 [epinephrine],not inhibited
4,NCCCC[C@H](N)C(=O)O [lysine],not sensitive
5,O=C(O)[C@@H]1CCCN1 [proline],not sensitive
6,N[C@@H](CO)C(=O)O [serine],not sensitive
